Like-named read-outs stand apart in the source and are kept apart here.
Target: T1, rat M1 receptor (Rattus norvegicus, UniProt P08482)
T1 construct: host or cells: CHO-K1
T1 sequence (P08482 1-460): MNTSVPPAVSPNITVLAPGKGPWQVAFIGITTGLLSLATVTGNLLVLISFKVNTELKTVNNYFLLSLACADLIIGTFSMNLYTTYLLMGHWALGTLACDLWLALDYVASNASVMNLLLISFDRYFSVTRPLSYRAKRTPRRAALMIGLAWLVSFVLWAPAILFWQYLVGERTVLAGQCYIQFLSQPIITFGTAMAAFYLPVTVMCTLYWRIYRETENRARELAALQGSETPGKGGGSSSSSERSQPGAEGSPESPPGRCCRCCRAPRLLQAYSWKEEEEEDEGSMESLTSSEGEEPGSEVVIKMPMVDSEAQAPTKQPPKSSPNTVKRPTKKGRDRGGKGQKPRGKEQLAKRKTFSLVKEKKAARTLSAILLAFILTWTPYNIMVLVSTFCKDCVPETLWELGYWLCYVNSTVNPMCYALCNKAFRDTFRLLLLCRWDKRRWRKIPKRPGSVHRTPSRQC
Assay: Calcium mobilization assay, CHO-K1 cells stably expressing rat M1 (low throughput, Flexstation II)
Type: cell-based
Details: for Emax: CHO-K1, read-out: Efficacy (% Max ACh)
Text: Chinese hamster ovary (CHO-K1) cells stably expressing rat (r)M1 were purchased from the American Type Culture Collection and cultured according to their indicated protocol. CHO cells stably expressing human (h)M2, hM3, and hM5 were described previously (Levey et al., 1991); hM1 and hM4 cDNAs were purchased from Missouri S&T cDNA Resource; rM4 cDNA was provided by T. I. Bonner (National Institutes of Health, Bethesda, Md.). hM1, hM4, and rM4 cDNAs were used to stably transfect CHO-K1 cells purchased from the American Type Culture Collection using Lipofectamine2000. To make stable hM2, hM4 and rM4 cell lines for use in calcium mobilization assays, these cells also were stably transfected with a chimeric G-protein (Gqi5) (provided by B. R. Conklin, University of California, San Francisco) using Lipofectamine 2000. rM1, hM3, and hM5 cells were grown in Ham's F-12 medium containing 10% heat-inactivated fetal bovine serum (FBS), 20 mM HEPES, and 50 μg/mL G418 sulfate. hM2-Gqi5 and hM4-Gqi5 cells were grown in the same medium also containing 500 μg/mL Hygromycin B. Stable rM4-Gqi5 cells were grown in DMEM containing 10% heat-inactivated FBS, 20 mM HEPES, 400 μg/mL G418 sulfate, and 500 μg/mL Hygromycin B. The rat M1 Y381A orthosteric mutant receptor cDNA was generated using the Quik-Change site-directed mutagenesis kit (Stratagene) and verified by sequencing. CHO-K1 cells were stably transfected with this cDNA using Lipofectamine2000 and screened for expression based on calcium mobilization in response to the allosteric M1 agonist N-desmethylclozapine.
For low throughput measurement of agonist-evoked increases in intracellular calcium, CHO-K1 cells stably expressing muscarinic receptors were plated in 100 μL of growth medium at 5×10^4 (rM1, hM3, and hM5) or 6×10^4 cells per well (rM1 Y381A, hM2, and rM4) in Costar 96-well black-walled, tissue culture (TC)-treated, clear-bottom plates (Fisher). Cells were incubated overnight at 37° C. and 5% CO2. The next day, medium was removed from the cells, and they were incubated with 50 μL of 2 μM Fluo-4/acetoxymethyl ester (Invitrogen, Carlsbad, Calif.) prepared as a 2.3 mM stock in DMSO and mixed in a 1:1 ratio with 10% (w/v) Pluronic F-127 and diluted in assay buffer [HBSS (Invitrogen) supplemented with 20 mM HEPES and 2.5 mM probenecid, pH 7.4] for 1 h at 37° C. and 5% CO2. Dye was removed and replaced with 50 μL of assay buffer. For calcium fluorescence measurements, CRCs of compounds (50 μl, 2×) were added 19 s after the beginning of data collection via a Flexstation II (Molecular Devices, Sunnyvale, Calif.). Fluorescence imaging continued for a total of 130 s acquisition time using an excitation wavelength of 488 nm, an emission wavelength of 525 nm, and a cutoff wavelength of 515 nm. All of the peaks of the calcium response were normalized to the response to a maximally effective concentration of ACh (ECmax). These normalized peak calcium response values were fit using GraphPad Prism version 4.0 to a four-parameter logistic equation to determine EC50 values.

[1] = rat M1, agonist-evoked calcium mobilization in CHO-K1 cells, read-out: Potency (EC50)

Row | SMILES | EC50 [nM] | Emax [%] | EC50 [1] [nM]
1 | CCOC(=O)N1C2CCC1CC(NCCNC(=O)c1cccs1)C2 (stereo not shown) [Example 1, Ethyl 3-(2-(thiophene-2-carboxamido)ethylamino)-8-azabicyclo[3.2.1]octane-8-carboxylate] | 74 | 88 | 
2 | CCOC(=O)N1C2CCC1CC(NCCNC(=O)c1ccccc1F)C2 (stereo not shown) [Example 2, Ethyl 3-(2-(2-fluorobenzamido)ethylamino)-8-azabicyclo[3.2.1]octane-8-carboxylate] | 69 | 103 | 
3 | CCOC(=O)N1C2CCC1CC(NCCNC(=O)c1ccccc1C)C2 (stereo not shown) [Example 3, ethyl 3-({2-[(2-methylphenyl)formamido]-ethyl}amino)-8-azabicyclo[3.2.1]octane-8-carboxylate] | 85 | 81 | 
4 | CCOC(=O)N1C2CCC1CC(NCCNC(=O)c1cccc(OC)c1)C2 (stereo not shown) [Example 4, ethyl 3-({2-[(3-methoxy-phenyl)formamido]-ethyl}amino)-8-azabicyclo[3.2.1]octane-8-carboxylate] |  | 81 | 211
5 | CCOC(=O)N1C2CCC1CC(NCCNC(=O)c1ccc(F)cc1C(F)(F)F)C2 (stereo not shown) [Example 5, ethyl 3-[(2-{[4-fluoro-2-(trifluoromethyl)phenyl]-formamido}ethyl)-amino]-8-azabicyclo[3.2.1]octane-8-carboxylate] |  | 39 | 
6 | CCOC(=O)N1C2CCC1CC(NCCNC(=O)c1ccc(F)cc1F)C2 (stereo not shown) [Example 6, ethyl 3-({2-[(2,4-difluorophenyl)formamido]-ethyl}amino)-8-azabicyclo[3.2.1]octane-8-carboxylate] | 72 | 82 | 
7 | CCOC(=O)N1C2CCC1CC(NCCNC(=O)c1ccc(F)cc1Cl)C2 (stereo not shown) [Example 7, ethyl 3({2-[(2-chloro-4-fluorophenyl)formamido]-ethyl}amino)-8-azabicyclo[3.2.1]octane-8-carboxylate] | 96 | 95 | 
8 | CCOC(=O)N1C2CCC1CC(NCCNC(=O)c1ccc(C)cc1)C2 (stereo not shown) [Example 8, ethyl 3-({2-[(4-methylphenyl)formamido]-ethyl}amino)-8-azabicyclo[3.2.1]octane-8-carboxylate] |  | 47 | 
9 | CCOC(=O)N1C2CCC1CC(NCCNC(=O)c1cccc(C)c1)C2 (stereo not shown) [Example 9, ethyl 3-({2-[(3-methylphenyl)formamido]-ethyl}amino)-8-azabicyclo[3.2.1]octane-8-carboxylate] |  | 103 | 115
10 | CCOC(=O)N1C2CCC1CC(NCCNC(=O)c1ccc(Cl)c(Cl)c1)C2 (stereo not shown) [Example 10, ethyl 3-({2-[(3,4-dichlorophenyl)formamido]-ethyl}amino)-8-azabicyclo[3.2.1]octane-8-carboxylate] |  | 49 | 1020
11 | CCOC(=O)N1C2CCC1CC(NCCNC(=O)c1ccc(C)c(C)c1)C2 (stereo not shown) [Example 11, ethyl 3-({2-[(3,4-dimethylphenyl)formamido]-ethyl}amino)-8-azabicyclo[3.2.1]octane-8-carboxylate] |  | 48 | 
12 | CCOC(=O)N1C2CCC1CC(NCCNC(=O)c1ccc3c(c1)CCO3)C2 (stereo not shown) [Example 12, ethyl 3-{[2-(2,3-dihydro-1-benzofuran-5-ylformamido)ethyl]-amino}-8-azabicyclo[3.2.1]octane-8-carboxylate] |  | 31 | 
13 | CCOC(=O)N1C2CCC1CC(NCCNC(=O)c1ccc(C)c(F)c1)C2 (stereo not shown) [Example 13, ethyl 3-({2-[(3-fluoro-4-methylphenyl)formamido]-ethyl}amino)-8-azabicyclo[3.2.1]octane-8-carboxylate] |  | 50 | 631
14 | CCOC(=O)N1C2CCC1CC(NCCNC(=O)c1ccco1)C2 (stereo not shown) [Example 14, ethyl 3-{[2-(furan-2-ylformamido)ethyl]-amino}-8-azabicyclo[3.2.1]octane-8-carboxylate] |  | 24 | 
15 | CCOC(=O)N1C2CCC1CC(NCCNC(=O)c1ccc(F)c(F)c1)C2 (stereo not shown) [Example 15, ethyl 3-({2-[(3,4-difluorophenyl)formamido]-ethyl}amino)-8-azabicyclo[3.2.1]octane-8-carboxylate] |  | 104 | 122

Reference: US8697691B2, “Alkyl 3-((2-amidoethyl)amino)-8-azabicyclo[3.2.1]octane-8-carboxylate analogs as selective M1 agonists and methods of making and using same” (Vanderbilt University, priority 2009, dated 2014)
